From ChEMBL document CHEMBL1201861, “Genomics of Drug Sensitity in Cancer screening data, Wellcome Trust Sanger Institute”

Columns and labels:
Assay in all cases: cells
Settings in all cases: Homo sapiens
EW-24 = type: functional, cell-based;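 further: human EW-24 cancer cell line, growth inhibition read out via a cell viability assay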
Description: SANGER: Inhibition of human EW-24 cell growth in a cell viability assay.

LAMA-84 = type: functional, cell-based;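 further: growth inhibition of LAMA-84 cells, read out with a cell viability assay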
Description: SANGER: Inhibition of human LAMA-84 cell growth in a cell viability assay.

MS-1 = type: functional, cell-based
Description: SANGER: Inhibition of human MS-1 cell growth in a cell viability assay.

DJM-1 = type: functional, cell-based;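 further: growth inhibition of human DJM-1 cells, read out by a cell viability assay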
Description: SANGER: Inhibition of human DJM-1 cell growth in a cell viability assay.

BB65-RCC = type: functional, cell-based;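 further: growth inhibition of the cell line, measured with a cell viability assay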
Description: SANGER: Inhibition of human BB65-RCC cell growth in a cell viability assay.

SBC-1 = type: functional, cell-based;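 further: cell viability assay measuring growth inhibition of the SBC-1 cell line, IC50 being the concentration that halves growth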
Description: SANGER: Inhibition of human SBC-1 cell growth in a cell viability assay.

C8166 = type: functional, cell-based;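 further: growth inhibition of human C8166 cells measured by a cell viability assay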
Description: SANGER: Inhibition of human C8166 cell growth in a cell viability assay.

NCI-H720 = type: functional, cell-based;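 further: growth inhibition of human NCI-H720 cells determined by a cell viability assay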
Description: SANGER: Inhibition of human NCI-H720 cell growth in a cell viability assay.

HCC2218 = type: functional, cell-based;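 further: cell viability assay read-out, with IC50 given as the concentration that inhibits growth of the cell line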
Description: SANGER: Inhibition of human HCC2218 cell growth in a cell viability assay.

A388 = type: functional, cell-based;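 further: growth inhibition of human A388 cells, read out with a cell viability assay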
Description: SANGER: Inhibition of human A388 cell growth in a cell viability assay.

D-502MG = type: functional, cell-based
Description: SANGER: Inhibition of human D-502MG cell growth in a cell viability assay.

GT3TKB = type: functional, cell-based;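 further: growth inhibition of the cell line, read out with a cell viability assay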
Description: SANGER: Inhibition of human GT3TKB cell growth in a cell viability assay.

KGN = type: functional, cell-based;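 further: growth inhibition of KGN cells, read out with a cell viability assay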
Description: SANGER: Inhibition of human KGN cell growth in a cell viability assay.

HEL = type: functional, cell-based;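 further: growth inhibition of HEL cells, read out with a cell viability assay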
Description: SANGER: Inhibition of human HEL cell growth in a cell viability assay.

ES4 = type: functional, cell-based;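 further: growth inhibition of human ES4 cells, read out by a cell viability assay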
Description: SANGER: Inhibition of human ES4 cell growth in a cell viability assay.

HOP-62 = type: functional, cell-based;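 further: cell growth inhibition determined with a viability assay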
Description: SANGER: Inhibition of human HOP-62 cell growth in a cell viability assay.

MZ7-mel = type: functional, cell-based;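 further: growth inhibition of human MZ7-mel cells, measured by a cell viability assay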
Description: SANGER: Inhibition of human MZ7-mel cell growth in a cell viability assay.

Calu-6 = type: functional, cell-based;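 further: growth of human Calu-6 cells, read out by a cell viability assay, IC50 marking inhibition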
Description: SANGER: Inhibition of human Calu-6 cell growth in a cell viability assay.

MC116 = type: functional, cell-based;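 further: growth inhibition of MC116 cells, read out with a cell viability assay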
Description: SANGER: Inhibition of human MC116 cell growth in a cell viability assay.

TK-10 = type: functional, cell-based;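 further: growth inhibition of TK-10 cells, read out in a cell viability assay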
Description: SANGER: Inhibition of human TK10 cell growth in a cell viability assay.

JVM-3 = type: functional, cell-based;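 further: growth inhibition of human JVM-3 cells, read out with a cell viability assay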
Description: SANGER: Inhibition of human JVM-3 cell growth in a cell viability assay.

DMS-114 = type: functional, cell-based
NCI-H1299 = type: functional, cell-based;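 further: growth inhibition of human NCI-H1299 cells, read out by a cell viability assay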
Description: SANGER: Inhibition of human NCI-H1299 cell growth in a cell viability assay.

RCC10RGB = type: functional, cell-based;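 further: growth inhibition of human RCC10RGB cells, read out by a cell viability assay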
Description: SANGER: Inhibition of human RCC10RGB cell growth in a cell viability assay.

KP-N-YS = type: functional, cell-based;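 further: cell viability assay measuring inhibition of cell line growth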
Description: SANGER: Inhibition of human KP-N-YS cell growth in a cell viability assay.

GCIY = type: functional, cell-based;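 further: growth inhibition of the human GCIY cell line, read out by a cell viability assay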
Description: SANGER: Inhibition of human GCIY cell growth in a cell viability assay.

NCI-H1770 = type: functional, cell-based;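 further: growth inhibition of NCI-H1770 cells determined with a viability readout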
Description: SANGER: Inhibition of human NCI-H1770 cell growth in a cell viability assay.

MV4-11 = type: functional, cell-based, MV-4-11;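 further: cell viability readout measuring growth inhibition of human MV-4-11 cells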
Description: SANGER: Inhibition of human MV-4-11 cell growth in a cell viability assay.

HDLM-2 = type: functional, cell-based;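 further: cell viability assay measuring suppression of HDLM-2 proliferation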
Description: SANGER: Inhibition of human HDLM-2 cell growth in a cell viability assay.

LU-139 = type: functional, cell-based
Description: SANGER: Inhibition of human LU-139 cell growth in a cell viability assay.

DEL = type: functional, cell-based;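 further: growth inhibition of the human DEL cell line, read out with a cell viability assay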
Description: SANGER: Inhibition of human DEL cell growth in a cell viability assay.

RXF 393 = type: functional, cell-based;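 further: growth inhibition of human RXF 393 cells, read out with a cell viability assay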
Description: SANGER: Inhibition of human RXF393 cell growth in a cell viability assay.

NCI-H82 = type: functional, cell-based;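 further: growth inhibition of NCI-H82 cells, measured with a cell viability readout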
Description: SANGER: Inhibition of human NCI-H82 cell growth in a cell viability assay.

ES3 = type: functional, cell-based;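 further: growth inhibition of ES3 cells, read out with a cell viability assay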
Description: SANGER: Inhibition of human ES3 cell growth in a cell viability assay.

NCI-H2126 = type: functional, cell-based;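 further: growth inhibition of the cancer cell line, determined with a cell viability readout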
Description: SANGER: Inhibition of human NCI-H2126 cell growth in a cell viability assay.

NCI-H747 = type: functional, cell-based;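 further: growth inhibition of human NCI-H747 cells, read out by a cell viability assay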
Description: SANGER: Inhibition of human NCI-H747 cell growth in a cell viability assay.

MLMA = type: functional, cell-based;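 further: growth inhibition of MLMA cells (human), determined through a cell viability readout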
Description: SANGER: Inhibition of human MLMA cell growth in a cell viability assay.

SK-N-DZ = type: functional, cell-based;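 further: growth inhibition of the cancer cell line, read out through a viability assay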
Description: SANGER: Inhibition of human SK-N-DZ cell growth in a cell viability assay.

A3-KAW = type: functional, cell-based;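 further: growth inhibition of human A3-KAW cells, read out with a cell viability assay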
Description: SANGER: Inhibition of human A3-KAW cell growth in a cell viability assay.

L-363 = type: functional, cell-based
Description: SANGER: Inhibition of human L-363 cell growth in a cell viability assay.

NCI-H446 = type: functional, cell-based;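 further: growth inhibition of NCI-H446 cells determined by a cell viability assay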
Description: SANGER: Inhibition of human NCI-H446 cell growth in a cell viability assay.

SK-MEL-2 = type: functional, cell-based;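 further: growth inhibition of human SK-MEL-2 cells measured with a cell viability assay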
Description: SANGER: Inhibition of human SK-MEL-2 cell growth in a cell viability assay.

HC-1 = type: functional, cell-based;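 further: growth inhibition of HC-1 cells measured by a cell viability assay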
Description: SANGER: Inhibition of human HC-1 cell growth in a cell viability assay.

ES7 = type: functional, cell-based;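 further: growth inhibition of cultured human ES7 cells, read out as cell viability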
Description: SANGER: Inhibition of human ES7 cell growth in a cell viability assay.

IST-MEL1 = type: functional, cell-based;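 further: growth inhibition of the cell line, read out with a cell viability assay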
Description: SANGER: Inhibition of human IST-MEL1 cell growth in a cell viability assay.

SNU1 = type: functional, cell-based;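 further: growth inhibition of human NCI-SNU-1 cells, measured with a cell viability assay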
Description: SANGER: Inhibition of human NCI-SNU-1 cell growth in a cell viability assay.

NCI-H23 = type: functional, cell-based;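 further: cell viability assay measuring growth inhibition of NCI-H23 cells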
Description: SANGER: Inhibition of human NCI-H23 cell growth in a cell viability assay.

MHH-PREB-1 = type: functional, cell-based;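 further: cell viability assay measuring inhibition of proliferation of human MHH-PREB-1 cells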
Description: SANGER: Inhibition of human MHH-PREB-1 cell growth in a cell viability assay.

EM-2 = type: functional, cell-based;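 further: growth inhibition of EM-2 cells, read out with a cell viability assay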
Description: SANGER: Inhibition of human EM-2 cell growth in a cell viability assay.

ES8 = type: functional, cell-based;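 further: growth inhibition of human ES8 cells, read out with a cell viability assay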
Description: SANGER: Inhibition of human ES8 cell growth in a cell viability assay.

Becker = type: functional, cell-based;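 further: growth inhibition of Becker cells, read out with a cell viability assay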
Description: SANGER: Inhibition of human Becker cell growth in a cell viability assay.

NOS-1 = type: functional, cell-based;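 further: growth inhibition of the human NOS-1 cell line, read out with a cell viability assay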
Description: SANGER: Inhibition of human NOS-1 cell growth in a cell viability assay.

SF-126 = type: functional, cell-based
Description: SANGER: Inhibition of human SF126 cell growth in a cell viability assay.

MZ1-PC = type: functional, cell-based
Description: SANGER: Inhibition of human MZ1-PC cell growth in a cell viability assay.

HCC1187 = type: functional, cell-based
Description: SANGER: Inhibition of human HCC1187 cell growth in a cell viability assay.

ES6 = type: functional, cell-based
Description: SANGER: Inhibition of human ES6 cell growth in a cell viability assay.

PSN1 = type: functional, cell-based
Description: SANGER: Inhibition of human PSN1 cell growth in a cell viability assay.

NB13 = type: functional, cell-based
Description: SANGER: Inhibition of human NB13 cell growth in a cell viability assay.

NB69 = type: functional, cell-based
Description: SANGER: Inhibition of human NB69 cell growth in a cell viability assay.

NB5 = type: functional, cell-based
Description: SANGER: Inhibition of human NB5 cell growth in a cell viability assay.

TE-12 = type: functional, cell-based
Description: SANGER: Inhibition of human TE-12 cell growth in a cell viability assay.

no-10 = type: functional, cell-based
Description: SANGER: Inhibition of human no-10 cell growth in a cell viability assay.

RPMI-8866 = type: functional, cell-based
Description: SANGER: Inhibition of human RPMI-8866 cell growth in a cell viability assay.

A704 = type: functional, cell-based
Description: SANGER: Inhibition of human A704 cell growth in a cell viability assay.

IA-LM = type: functional, cell-based
Description: SANGER: Inhibition of human IA-LM cell growth in a cell viability assay.

TE-11 = type: functional, cell-based
Description: SANGER: Inhibition of human TE-11 cell growth in a cell viability assay.

SMILES: Cc1ccc(NC(=O)c2cccc(C(C)(C)C#N)c2)cc1Nc1ccc2ncn(C)c(=O)c2c1
- IC50 (EW-24): 2.71 µM
- IC50 (LAMA-84): 0.192 µM
- IC50 (MS-1): > 4 µM
- IC50 (DJM-1): > 4 µM
- IC50 (BB65-RCC): > 4 µM
- IC50 (SBC-1): > 4 µM
- IC50 (C8166): > 4 µM
- IC50 (NCI-H720): > 4 µM
- IC50 (HCC2218): > 4 µM
- IC50 (A388): > 4 µM
- IC50 (D-502MG): 2.26 µM
- IC50 (GT3TKB): > 4 µM
- IC50 (KGN): > 4 µM
- IC50 (HEL): > 4 µM
- IC50 (ES4): > 4 µM
- IC50 (HOP-62): > 4 µM
- IC50 (MZ7-mel): 0.117 µM
- IC50 (Calu-6): 0.0515 µM
- IC50 (MC116): > 4 µM
- IC50 (TK-10): > 4 µM
- IC50 (JVM-3): > 4 µM
- IC50 (DMS-114): > 4 µM
- IC50 (NCI-H1299): > 4 µM
- IC50 (RCC10RGB): > 4 µM
- IC50 (KP-N-YS): > 4 µM
- IC50 (GCIY): > 4 µM
- IC50 (NCI-H1770): > 4 µM
- IC50 (MV4-11): 1.42 µM
- IC50 (HDLM-2): > 4 µM
- IC50 (LU-139): > 4 µM
- IC50 (DEL): > 4 µM
- IC50 (RXF 393): > 4 µM
- IC50 (NCI-H82): > 4 µM
- IC50 (ES3): > 4 µM
- IC50 (NCI-H2126): > 4 µM
- IC50 (NCI-H747): 0.506 µM
- IC50 (MLMA): > 4 µM
- IC50 (SK-N-DZ): > 4 µM
- IC50 (A3-KAW): > 4 µM
- IC50 (L-363): > 4 µM
- IC50 (NCI-H446): > 4 µM
- IC50 (SK-MEL-2): 3.22 µM
- IC50 (HC-1): > 4 µM
- IC50 (ES7): > 4 µM
- IC50 (IST-MEL1): 0.204 µM
- IC50 (SNU1): 0.448 µM
- IC50 (NCI-H23): > 4 µM
- IC50 (MHH-PREB-1): > 4 µM
- IC50 (EM-2): 0.196 µM
- IC50 (ES8): > 4 µM
- IC50 (Becker): > 4 µM
- IC50 (NOS-1): 0.0927 µM
- IC50 (SF-126): > 4 µM
- IC50 (MZ1-PC): 0.28 µM
- IC50 (HCC1187): > 4 µM
- IC50 (ES6): > 4 µM
- IC50 (PSN1): 0.0274 µM
- IC50 (NB13): > 4 µM
- IC50 (NB69): 0.191 µM
- IC50 (NB5): 1.95 µM
- IC50 (TE-12): 1.31 µM
- IC50 (no-10): > 4 µM
- IC50 (RPMI-8866): > 4 µM

SMILES: NC(=O)c1ncn([C@@H]2O[C@H](COP(=O)(O)O)[C@@H](O)[C@H]2O)c1N
- IC50 (EW-24): > 2000 µM
- IC50 (LAMA-84): 435 µM
- IC50 (MS-1): 425 µM
- IC50 (DJM-1): > 2000 µM
- IC50 (BB65-RCC): 1200 µM
- IC50 (SBC-1): 1400 µM
- IC50 (C8166): 1170 µM
- IC50 (A388): > 2000 µM
- IC50 (D-502MG): > 2000 µM
- IC50 (A704): > 2000 µM
- IC50 (GT3TKB): > 2000 µM
- IC50 (KGN): 630 µM
- IC50 (HEL): 804 µM
- IC50 (ES4): 1770 µM
- IC50 (HOP-62): > 2000 µM
- IC50 (MZ7-mel): 1770 µM
- IC50 (Calu-6): 732 µM
- IC50 (MC116): 1290 µM
- IC50 (TK-10): > 2000 µM
- IC50 (JVM-3): > 2000 µM
- IC50 (DMS-114): 1580 µM
- IC50 (NCI-H1299): > 2000 µM
- IC50 (IA-LM): 859 µM
- IC50 (RCC10RGB): > 2000 µM
- IC50 (KP-N-YS): > 2000 µM
- IC50 (TE-11): 587 µM
- IC50 (NCI-H1770): 485 µM
- IC50 (MV4-11): 108 µM
- IC50 (HDLM-2): 1780 µM
- IC50 (LU-139): 803 µM
- IC50 (DEL): 232 µM
- IC50 (RXF 393): 710 µM
- IC50 (NCI-H82): 993 µM
- IC50 (ES3): 1100 µM
- IC50 (NCI-H2126): > 2000 µM
- IC50 (NCI-H747): 1650 µM
- IC50 (MLMA): 375 µM
- IC50 (SK-N-DZ): 1020 µM
- IC50 (A3-KAW): 368 µM
- IC50 (L-363): 179 µM
- IC50 (NCI-H446): > 2000 µM
- IC50 (SK-MEL-2): > 2000 µM
- IC50 (HC-1): 1160 µM
- IC50 (ES7): > 2000 µM
- IC50 (IST-MEL1): > 2000 µM
- IC50 (SNU1): 464 µM
- IC50 (NCI-H23): > 2000 µM
- IC50 (MHH-PREB-1): 416 µM
- IC50 (EM-2): 230 µM
- IC50 (ES8): > 2000 µM
- IC50 (Becker): > 2000 µM
- IC50 (NOS-1): 524 µM
- IC50 (SF-126): > 2000 µM
- IC50 (MZ1-PC): > 2000 µM
- IC50 (HCC1187): 1140 µM
- IC50 (ES6): > 2000 µM
- IC50 (PSN1): 1950 µM
- IC50 (NB69): 976 µM
- IC50 (NB5): > 2000 µM
- IC50 (TE-12): > 2000 µM
- IC50 (no-10): > 2000 µM
- IC50 (RPMI-8866): > 2000 µM
